Data taken from patent publication EP0061907A1, “Secondary amines, their preparation, pharmaceutical compositions containing them and their use” (BEECHAM GROUP PLC, priority 1981, dated 1982).

Experiments:
Assay type in all cases: in vivo
Female CFLP mice = assay: Hypoglycaemic activity: blood glucose curve after subcutaneous glucose load in fasted mice; conditions: 2 hour period after glucose 1 g/kg s.c., compared with control mice given water
Procedure: Female CFLP mice, weighing approx. 25 g, were fasted for 24 hours prior to the study. The compounds under study were administered orally as an aqueous solution to each of 6 mice. 30 Minutes later a blood sample ([…]) was obtained from the tail for the analysis of blood glucose. Immediately after taking the blood sample, glucose (1 g/kg body weight) was administered subcutaneously to each mouse. 6 Mice were given water as a control. Blood samples were then obtained from each mouse at 30 minute intervals for 120 minutes. Compounds that produced a significant (P<0.05) reduction on blood glucose, compared with control mice given water, at any time interval, were considered active. The area under the blood glucose curve over the 2 hour period after the administration of the glucose was calculated for each compound and compared with the value for control animals.

genetically obese mice = assay: Anti-obesity activity: carcass lipid of genetically obese mice after daily oral dosing for 28 days
Procedure: The compounds were administered by oral gavage in water or carboxymethyl-cellulose suspension to genetically obese mice daily for 28 days. At the end of the time the carcass composition was determined.

rat ear = assay: Anti-inflammatory activity: croton oil induced inflammation of the rat ear; conditions: topical in irritant vehicle, ear weight after 6 hours, active = significant (5% level) reduction in ear weight vs non-drug treated control
Procedure: The method used is based on that described by G. Tonelli et al (Endocrinology, 77, 625-634, 1965). An inflammation is induced in the rat ear by the application of 50 µl of a 1% solution of croton oil in tetrahydrofuran, test compounds being dissolved in the irritant vehicle. After 6 hours the inflammation is assessed by killing the animals and weighing the ears. Topical anti-inflammatory activity of a compound is generally considered to be shown when a significant (5% level) reduction in ear weight is seen compared to non-drug treated control.

Male CFLP mice = assay: Platelet aggregation inhibition activity: response of blood platelet concentration to intravenous collagen in mice; conditions: two hours before intravenous collagen
Procedure: Male CFLP mice (ca 20g, n=11 or 12) were dosed orally with compound or vehicle (controls) after an overnight fast. Two hours later each mouse received an intravenous dose of collagen ([…], pH 6-6.6). Exactly 30 sec. after injection of collagen, each mouse was placed in a chamber of C02 until respiration ceased. […] Each concentration was expressed as a per cent of that obtained in a tail blood sample taken immediately before injection of collagen.

CCc1cccc(C(O)CNC(C)Cc2ccc(CNC)cc2)c1 (stereo not shown) [Example 10, N-(2-(4-N'Methylaminomethylphenyl)-1-methylethly)-2-hdroxy-2-(3-ethylphenyl) ethanamine]
REDUCTION IN AREA UNDER BLOOD GLUCOSE CURVE (%) (Female CFLP mice; 100.0 µ mol/kg orally): 49%

CNCc1ccc(CC(C)NCC(O)c2cccc(F)c2)cc1 (stereo not shown) [Example 9, N-(2-(4-N'-Methylaminomethylphenyl)-1-methylethyl)-2-hydroxy-2-(3-fluorophenyl) ethanamine]
g LIPID/MOUSE TREATED (genetically obese mice; 10.8 mg/kg p.o. daily for 28 days, control 22.95): 20.63 g

CNCc1ccc(C[C@@H](C)NC[C@H](O)c2cccc(C(F)(F)F)c2)cc1 (racemic) [Example 15, (RR,SS) N-(2-(4-N'-Methylaminomethylphenyl)-1-methylethyl)-2-hydroxy-2-(3-trifluoromethylphenyl) ethanamine]
REDUCTION IN AREA UNDER BLOOD GLUCOSE CURVE (%) (Female CFLP mice; 2.5 µ mol/kg orally): 19%

CC(Cc1ccc(CN)cc1)NCC(O)c1ccccc1 (stereo not shown) [Example 1, N-(2-(4-Aminomethylphenyl)-1-methylethyl)-2-hydroxy-2-phenylethanamine]
g LIPID/MOUSE TREATED (genetically obese mice; 6.25 mg/kg p.o. daily for 28 days, control 21.52): 17.98 g
REDUCTION IN AREA UNDER BLOOD GLUCOSE CURVE (%) (Female CFLP mice; 2.5 µ mol/kg orally): 29%

CNCc1ccc(CC(C)NCC(O)c2ccccc2)cc1 (stereo not shown) [Example 7, N-(2-(4-N'-Methylaminomethylphenyl)-1-methylethyl)-2-hydroxy-2-phenylethanamine]
g LIPID/MOUSE TREATED (genetically obese mice; 9.9 mg/kg p.o. daily for 28 days, control 23.13): 20.56 g

CNCc1ccc(CC(C)NCC(O)c2cccc(Br)c2)cc1 (stereo not shown) [Example 12, N-(2-(4-N'-Methylaminomethylphenyl)-1-methylethyl)-2-hydroxy-2-(3-bromophenyl) ethanamine]
g LIPID/MOUSE TREATED (genetically obese mice; 12.5 mg/kg p.o. daily for 28 days, control 24.60): 20.38 g
REDUCTION IN AREA UNDER BLOOD GLUCOSE CURVE (%) (Female CFLP mice; 2.5 µ mol/kg orally): 37%

CC(Cc1ccc(CN)cc1)NCC(O)c1cccc(Cl)c1 (stereo not shown) [Example 6, N-(2-(4-Aminomethylphenyl}-1-methylethyl)-2-hydroxy-2-(3-chlorophenyl) ethanamine]
g LIPID/MOUSE TREATED (genetically obese mice; 10.9 mg/kg p.o. daily for 28 days, control 18.75): 17.38 g

CNCCCCCCc1ccc(CC(C)NCC(O)c2cccc(Cl)c2)cc1 (stereo not shown) [Example 26, N-(2-(4-(6-N'-Methylaminohexyl)phenyl)-1-methylethyl)-2-hydroxy-2-(3-chlorophenyl) ethanamine]
REDUCTION IN AREA UNDER BLOOD GLUCOSE CURVE (%) (Female CFLP mice; 2.5 µ mol/kg orally): 53%

CC(Cc1ccc(CN(C)C)cc1)NCC(O)c1cccc(C(F)(F)F)c1 (stereo not shown) [Example 4, N-(2-(4-N'N'-Dimethylaminomethylphenyl)-1-methylethyl)-2-hydroxy-2-(3-trifluoromethylphenyl) ethanamine]
REDUCTION IN AREA UNDER BLOOD GLUCOSE CURVE (%) (Female CFLP mice; 12.5 µ mol/kg orally): 31%

CNCc1ccc(C[C@@H](C)NC[C@H](O)c2cccc(Cl)c2)cc1 (racemic) [Example 16, (RR,SS) N-(2-(4-N'-Methylaminomethylphenyl)-1-methylethyl) -2-hydroxy-2-(3-chlorophenyl) ethanamine]
g LIPID/MOUSE TREATED (genetically obese mice; 11.3 mg/kg p.o. daily for 28 days, control 22.55): 16.03 g
REDUCTION IN AREA UNDER BLOOD GLUCOSE CURVE (%) (Female CFLP mice; 2.5 µ mol/kg orally): 33%

CNCc1ccc(CC(C)NCC(O)c2cccc(Cl)c2)cc1 (stereo not shown) [Example 8, N-(2-(4-N'-Methylaminomethylphenyl)-1-methylethyl)-2-hydroxy-2-(3-chlorophenyl) ethanamine]
REDUCTION IN AREA UNDER BLOOD GLUCOSE CURVE (%) (Female CFLP mice; 12.5 µ mol/kg orally): 52%
ACTIVITY (rat ear; 2 mg/rat ear): Active
% Inhibition of re-sponse to collagen (Male CFLP mice; 10 µmol/kg p.o.): 37 p<0.001%

CC(Cc1ccc(CN)cc1)NCC(O)c1cccc(C(F)(F)F)c1 (stereo not shown) [Example 2, N-(2-(4-Aminomethylphenyl)-1-methylethyl)-2-hydroxy-2-(3-trifluoromethylphenyl) ethanamine]
g LIPID/MOUSE TREATED (genetically obese mice; 11.8 mg/kg p.o. daily for 28 days, control 25.09): 20.87 g
REDUCTION IN AREA UNDER BLOOD GLUCOSE CURVE (%) (Female CFLP mice; 2.5 µ mol/kg orally): 24%
ACTIVITY (rat ear; 0.5 mg/rat ear): Active
% Inhibition of re-sponse to collagen (Male CFLP mice; 10 µmol/kg p.o.): 29 p<0.01%

CC(=O)Oc1ccccc1C(=O)O [Aspirin, reference compound]
% Inhibition of re-sponse to collagen (Male CFLP mice; 600(108) µmol(mg)/kg p.o.): 29 p<0.05%

CNCCCCc1ccc(CC(C)NCC(O)c2cccc(Cl)c2)cc1 (stereo not shown) [Example 27, N-(2-(4-(4-N'-Methylaminobutyl)phenyl)-1-methylethyl)-2-hydroxy-2-(3-chlorophenyl) ethanamine]
REDUCTION IN AREA UNDER BLOOD GLUCOSE CURVE (%) (Female CFLP mice; 2.5 µ mol/kg orally): 10%

CNCc1ccc(CC(C)NCC(O)c2cccc(C(F)(F)F)c2)cc1 (stereo not shown) [Example 3, N-(2-(4-N'-Mcthylaminomethylphenyl)-1-methylethyl)-2-hydroxy-2-(3-trifluoromethylphenyl) ethanamine]
g LIPID/MOUSE TREATED (genetically obese mice; 12.2 mg/kg p.o. daily for 28 days, control 20.98): 18.56 g
% Inhibition of re-sponse to collagen (Male CFLP mice; 10 µmol/kg p.o.): 25 p<0.02%

CNC(C)Cc1ccc(CC(C)NCC(O)c2cccc(Cl)c2)cc1 (stereo not shown) [Example 25, N-(2-(4-(2-N'-Methylaminopropyl)phenyl)-1-methylethyl) -2-hydroxy-2-(3-chlorophenyl)ethanamine]
REDUCTION IN AREA UNDER BLOOD GLUCOSE CURVE (%) (Female CFLP mice; 2.5 µ mol/kg orally): 41%

CN[C@H](C)c1ccc(CC(C)NCC(O)c2cccc(Cl)c2)cc1 (stereo partly drawn) [Example 24, N-(2-(4-(1-(R)-N'-Methylaminoethyl)phenyl)-1-methylethyl) -2-hydroxy-2-(3-chlorophenyl)ethanamine]
REDUCTION IN AREA UNDER BLOOD GLUCOSE CURVE (%) (Female CFLP mice; 50 µ mol/kg orally): 17%

CN[C@@H](C)c1ccc(CC(C)NCC(O)c2cccc(Cl)c2)cc1 (stereo partly drawn) [Example 23, N-(2-(4-(1-(S)-N'-Methylaminoethyl)phenyl)-1-methylethyl)-2-hydroxy-2-(3-chlorophenyl)ethanamine]
REDUCTION IN AREA UNDER BLOOD GLUCOSE CURVE (%) (Female CFLP mice; 50 µ mol/kg orally): 26%

CNCCCc1ccc(CC(C)NCC(O)c2cccc(C(F)(F)F)c2)cc1 (stereo not shown) [Example 14, N-(2-(4-(3-N'-Methylaminopropyl)phenyl)-1-methylethyl)-2-hydroxy-2-(3-trifluoromethylphenyl) ethanamine]
REDUCTION IN AREA UNDER BLOOD GLUCOSE CURVE (%) (Female CFLP mice; 12.5 µ mol/kg orally): 46%
